Key:
[1] = tested on: VCap, C4-2, 22Rv1 and LnCap cells; experiment: Cell proliferation assay, summary statements over several cell lines; type: cell-based; settings: for antiproliferative activity on VCap, C4-2, 22Rv1 and LnCap cells (in words): 227Th-labelled compounds bearing the HOPO chelator Example A
Method: Inhibition of cell proliferation of Thorium-227 labeled PMSA SMOL ligands was tested different prostate cancer cell lines, namely 22Rv1, VCaP, C4-2 (all from ATCC, Manassas, Va., USA) and LNCaP (DMSZ, Braunschweig). Cells were seeded using the following conditions in 384 well plates (Corning) in 30 μl of growth media at 4000 cells/well for VCaP cells and 1000 cells/well for 22Rv1, C4-2 and LNCaP cells.
Cells were cultivated an incubator at 37° C. and 5% C02 over night. […] In sister plates cell viability at treatment start (d=0) was determined using CellTiter-Glo® assay (CTG, Promega, Madison, Wis., USA), by adding 30 μl per well CTG solution, incubation for 10 min and reading of Luminescence in a PheraStarFSX instrument (BMG Labtech). After a 5-day exposure in the presenced of test compounds, cell viability of treated or untreated control cells was determined again using CellTiter-Glo® assay (Promega, Madison, Wis., USA). […] The DRC software is a Biobook Spreadsheet that was developed by Bayer AG and Bayer Business Services on the IDBS E-Workbook Suite platform (IDBS: ID Business Solutions Ltd., Guildford, UK).

[2] = biological target: T1, PSMA-expressing LNCaP cells (Homo sapiens, UniProt Q04609); experiment: Binding competition assay against 3H-PSMA-617 on LNCaP cells
T1 construct: PSMA-expressing LNCaP cells; endogenous in cells; host or cells: LNCaP
T1 sequence (Q04609 whole entry): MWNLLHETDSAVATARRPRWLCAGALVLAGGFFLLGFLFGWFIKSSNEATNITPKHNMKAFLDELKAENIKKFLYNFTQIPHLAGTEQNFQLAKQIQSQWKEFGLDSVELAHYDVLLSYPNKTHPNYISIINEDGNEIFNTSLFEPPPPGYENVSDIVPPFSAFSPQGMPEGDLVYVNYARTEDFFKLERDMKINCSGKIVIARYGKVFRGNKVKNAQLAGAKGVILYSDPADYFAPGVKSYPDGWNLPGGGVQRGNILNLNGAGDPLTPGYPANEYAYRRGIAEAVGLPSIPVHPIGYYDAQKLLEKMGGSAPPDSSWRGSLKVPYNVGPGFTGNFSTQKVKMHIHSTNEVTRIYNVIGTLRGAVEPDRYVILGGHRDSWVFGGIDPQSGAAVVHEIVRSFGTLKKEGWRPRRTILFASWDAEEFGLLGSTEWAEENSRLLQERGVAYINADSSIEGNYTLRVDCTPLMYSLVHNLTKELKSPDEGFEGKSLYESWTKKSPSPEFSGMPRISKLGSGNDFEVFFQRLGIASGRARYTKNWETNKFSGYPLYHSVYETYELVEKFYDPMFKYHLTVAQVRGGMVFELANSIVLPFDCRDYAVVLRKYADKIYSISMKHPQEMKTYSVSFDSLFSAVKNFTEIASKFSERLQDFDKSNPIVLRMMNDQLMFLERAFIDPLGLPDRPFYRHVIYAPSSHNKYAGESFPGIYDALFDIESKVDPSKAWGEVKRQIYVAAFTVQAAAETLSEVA
How it was run: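 Compounds added to LNCaP cells in growth medium, 2 h at 37 °C, 5% CO2. After two ice-cold PBS washes, cells lysed in 0.3 M NaOH and bound radioactivity measured by liquid scintillation counting.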

[3] = tested on: LNCaP cells; experiment: Cell proliferation assay (CellTiter-Glo, 5-day exposure), LNCaP; type: cell-based, human; settings: LNCaP, 1000 cells/well; Th-227 labelled at 375 kBq/nmol; 5-day exposure; mean of 1 to 6 experiments
How it was run: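 Triplicate serial dilutions; 375 kBq/nmol Th-227 label; radiochemical purity above 70% unless flagged (50–70%). Overnight attachment precedes dosing, and CTG luminescence is read at d0 and d5.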

[4] = tested on: VCaP cells; experiment: Cell proliferation assay (CellTiter-Glo, 5-day exposure), VCaP; type: cell-based; settings: 4000 cells/well, Th-227 labelled at 375 kBq/nmol, mean of 1 to 6 experiments
How it was run: (§1)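 Prostate cancer cells (VCaP 4000/well; 22Rv1, C4-2, LNCaP 1000/well), Th-227-labelled PSMA ligands, 5-day exposure; viability by CTG at start and end.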

[5] = tested on: LNCaP human prostate cancer cells; experiment: LNCaP xenograft efficacy study (T/C tumor area); type: in vivo, SCID mice
How it was run: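 SCID mice with testosterone pellet bearing s.c. flank LNCaP xenografts (5×10^6 cells in Matrigel) were treated i.v. with a defined radioactive dose once tumors reached 35-50 mm^2 (n=10/group). Tumor area (caliper, longest diameter × perpendicular) measured 2-3× weekly; T/C ratio calculated from tumor areas when vehicle group closed.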

[6] = biological target: T1, PSMA-expressing LNCaP cells; experiment: Internalization assay (membrane bound and internalized Th-227); type: cell-based; settings: 10 nM radiolabeled compound, Th-227 at 375 kBq/nmol, triplicates; for Internalized in LNCaP fmol/10^6 cells 30 min / Membrane bound in LNCaP fmol/10^6 cells 30 min: 30 min incubation; for Internalized in LNCaP fmol/10^6 cells 2 h / Membrane bound in LNCaP fmol/10^6 cells 2 h: 2 h incubation
Method: For internalization assays 24 well plates (#3526, Corning) were coated with 200 μl Poly-L-Lysine (0.1 mg/ml, #3438-100-01, Fa. Cultrex) per well for 2 h at 37° C. […] Cells were incubated at 37° C. and 5% CO2 over night. On the following day 400 μl of the media were removed and a total of 200 μl growth medium added supplemented with PSMA-SMOLs labeled with Th-227 at 375 kBq/nmol in triplicates. Radiochemical purity of the labeling was analyzed by instant thin layer chromatography and found to be above 70% for all compounds used. The final concentration of radiolabeled SMOLs was in the test wells was 10 nM. Cells were incubated for 30 min or 2 h. After the incubation time supernatants were taken off and cells washed with PBS. Thereafter cells were washed twice with 0.2 ml 50 mM Glycine-HCl buffer (#55097, Sigma Aldrich) and once with PBS and the washing solutions combined in counting vials (#TK75-018, Fa. Corning) and subjected to gamma counting (1470 Wizard automatic gamma counter, Wallac). The resulting counts were attributed to membrane bound radioactivity. Cells were then lysed with 500 μl 0.3N NaOH (#181691.1211, Fa. PanReac AppliChem ITW Reagents) followed by another wash with 500 μl PBS. The NaOH lysate as well as the final wash were combined in vials and subjected to gamma counting as described above. Measured radioactivity was attributed to internalized fraction. Results were calculated as fmol of Th-227 per/10^cells in the membrane bound and internalized fractions from triplicate values.

[7] = tested on: C4-2 cells; experiment: Cell proliferation assay (CellTiter-Glo, 5-day exposure), C4-2; type: cell-based; settings: C4-2, 1000 cells/well, Th-227 labelled at 375 kBq/nmol, mean of 1 to 6 experiments
How it was run: as §1

[8] = tested on: 22Rv1 cells; experiment: Cell proliferation assay (CellTiter-Glo, 5-day exposure), 22Rv1; type: cell-based; settings: 22Rv1, 1000 cells/well, Th-227 labelled at 375 kBq/nmol, mean of 1 to 6 experiments
How it was run: as §1

[9] = Example IV, day 36 after start of therapy, once 1 MBq/kg
[10] = Example V, day 27 after start of therapy, once 750 kBq/kg

Structure (SMILES) | antiproliferative activity on VCap, C4-2, 22Rv1 and LnCap cells (in words) [1] | % remaining 3H-PSMA-617 @ 10 nM (mean) ([2]; LNCaP cells, 10 nM 3H-PSMA-617, competing non-radiolabeled compound 10 nM, 2 h at 37° C., triplicates) [%] | % remaining 3H-PSMA-617 @ 100 nM (mean) ([2]; LNCaP cells, 10 nM 3H-PSMA-617, competing non-radiolabeled compound 100 nM, 2 h at 37° C., triplicates) [%] | competition against 3H-PSMA-617 on PSMA-expressing LNCaP cells (in words) ([2]; comparison between examples) | Proliferation assay on cancer cell lines by TTCs Default Pivot #3 IC50 [kBq/mL] LnCap 1000cells 375kBq/nmol (mean) [3] [kBq/mL] | Proliferation assay on cancer cell lines by TTCs Default Pivot #3 IC50 [kBq/mL] VCap 4000cells 375kBq/nmol (mean) [4] [kBq/mL] | T/Carea [5, 9] | T/Carea [5, 10] | Internalized in LNCaP fmol/10^6 cells 30 min [6] [fmol/10^6 cells] | Membrane bound in LNCaP fmol/10^6 cells 30 min [6] [fmol/10^6 cells] | Internalized in LNCaP fmol/10^6 cells 2 h [6] [fmol/10^6 cells] | Membrane bound in LNCaP fmol/10^6 cells 2 h [6] [fmol/10^6 cells] | Proliferation assay on cancer cell lines by TTCs Default Pivot #3 IC50 [kBq/mL] C4-2 1000cells 375kBq/nmol (mean) [7] [kBq/mL] | Proliferation assay on cancer cell lines by TTCs Default Pivot #3 IC50 [kBq/mL] 22Rv1 1000cells 375kBq/nmol (mean) [8] [kBq/mL] | T/Carea ([5]; Example I, day 27, 1 x 750 kBq/kg) | antiproliferative activity on VCap and C4-2 cells (in words) ([1]; 227Th-labelled compounds, in comparison to 227Th-labelled examples 1-C monomer, dimer, trimer and tetramer)
Cc1cc(C(=O)NCCN(CCCN(CCNC(=O)c2cc(C)n(CC(=O)O)c(=O)c2O)CCNC(=O)c2cc(C)n(CC(=O)NC[C@H]3CC[C@H](C(=O)N[C@@H](Cc4ccc5ccccc5c4)C(=O)NCCCC[C@H](NC(=O)N[C@@H](CCC(=O)O)C(=O)O)C(=O)O)CC3)c(=O)c2O)CCNC(=O)c2cc(C)n(CC(=O)NC[C@H]3CC[C@H](C(=O)N[C@@H](Cc4ccc5ccccc5c4)C(=O)NCCCC[C@H](NC(=O)N[C@@H](CCC(=O)O)C(=O)O)C(=O)O)CC3)c(=O)c2O)c(O)c(=O)n1CC(=O)O [1-C dimer, (3S,10S,14S,3'S,10'S,14'S)-1,1′-(propane-1,3-diylbis{[(2-{[1-(carboxymethyl)-3-hydroxy-6-methyl-2-oxo-1,2-dihydropyridine-4-carbonyl]amino}ethyl)azanediyl]ethane-2,1-diylcarbamoyl(3-hydroxy-6-methyl-2-oxopyridine-4,1(2H)-diyl)(1-oxoethane-2,1-diyl)azanediylmethylene(1r,4S)cyclohexane-4,1-diyl})bis{3-[(naphthalen-2-yl)methyl]-1,4,12-trioxo-2,5,11,13-tetraazahexadecane-10,14,16-tricarboxylic acid}] | high antiproliferative activity | 39 | 5 | improved competition |  |  |  |  |  |  |  |  |  |  |  | 
Cc1cc2c(c(=O)n1CC(=O)O)[O][227Th]13[O]c4c(cc(C)n(CC(=O)O)c4=O)C(=O)NCCN(CCCN(CCNC2=O)CCNC(=O)c2cc(C)n(CC(=O)NCc4ccc(C(=O)N[C@@H](Cc5ccc6ccccc6n5)C(=O)NCCCC[C@H](NC(=O)N[C@@H](CCC(=O)O)C(=O)O)C(=O)O)nc4)c(=O)c2[O]1)CCNC(=O)c1cc(C)n(CC(=O)NCc2ccc(C(=O)N[C@@H](Cc4ccc5ccccc5n4)C(=O)NCCCC[C@H](NC(=O)N[C@@H](CCC(=O)O)C(=O)O)C(=O)O)nc2)c(=O)c1[O]3 [34-C dimer-227Th] |  |  |  |  | 0.02 | 1.25 | 0.46 | 0.38 | 100 | 79 | 299 | 185 | 0.46 | 1.36 |  | 
Cc1cc2c(c(=O)n1CC(=O)O)[O][227Th]13[O]c4c(cc(C)n(CC(=O)O)c4=O)C(=O)NCCN(CCCN(CCNC(=O)c4cc(C)n(CC(=O)O)c(=O)c4[O]1)CCNC(=O)c1cc(C)n(CC(=O)NCc4ccc(C(=O)N[C@@H](Cc5ccc6ccccc6n5)C(=O)NCCCC[C@H](NC(=O)N[C@@H](CCC(=O)O)C(=O)O)C(=O)O)nc4)c(=O)c1[O]3)CCNC2=O [34-C monomer-227Th] |  |  |  |  | 0.02 | 0.99 | 0.51 | 0.37 | 75 | 147 | 325 | 359 | 0.15 | 1.28 | 0.37 | 
Cc1cc2c(c(=O)n1CC(=O)O)[O][227Th]13[O]c4c(cc(C)n(CC(=O)O)c4=O)C(=O)NCCN(CCCN(CCNC(=O)c4cc(C)n(CC(=O)O)c(=O)c4[O]1)CCNC(=O)c1cc(C)n(CC(=O)NCc4ccc(C(=O)N[C@@H](Cc5ccc6ccccc6n5)C(=O)NCCCC[C@H](NC(=O)N[C@@H](CCC(=O)O)C(=O)O)C(=O)O)nc4)c(=O)c1[O]3)CCNC2=O [34-C monomer] | high antiproliferative activity |  |  |  |  |  |  |  |  |  |  |  |  |  |  | improved antiproliferative activity
Cc1cc(C(=O)NCCN(CCCN(CCNC(=O)c2cc(C)n(CC(=O)NCc3ccc(C(=O)N[C@@H](Cc4ccc5ccccc5n4)C(=O)NCCCC[C@H](NC(=O)N[C@@H](CCC(=O)O)C(=O)O)C(=O)O)nc3)c(=O)c2[O-])CCNC(=O)c2cc(C)n(CC(=O)NCc3ccc(C(=O)N[C@@H](Cc4ccc5ccccc5n4)C(=O)NCCCC[C@H](NC(=O)N[C@@H](CCC(=O)O)C(=O)O)C(=O)O)nc3)c(=O)c2[O-])CCNC(=O)c2cc(C)n(CC(=O)NCc3ccc(C(=O)N[C@@H](Cc4ccc5ccccc5n4)C(=O)NCCCC[C@H](NC(=O)N[C@@H](CCC(=O)O)C(=O)O)C(=O)O)nc3)c(=O)c2[O-])c([O-])c(=O)n1CC(=O)O.[227Th+4] [34-C trimer 227Th] |  |  |  |  | 0.03 | 1.1 | 0.41 | 0.56 | 68 | 49 | 162 | 93 | 0.28 | 1.25 |  | 
